Drawing on patent US20200216439A1, “HETERO-1,5,6,7-TETRAHYDRO-4H-INDOL-4-ONES” (BAYER PHARMA AKTIENGESELLSCHAFT, priority 2015, published 2020), this text covers IC50 for 30 compounds.

This assay deals with T1, catalytic domain of human Bub1 (amino acids 704-1085) (Homo sapiens, UniProt O43683).
T1 construct: catalytic domain of human Bub1 (amino acids 704-1085); His6 (N); made in house; host or cells: Hi5 insect cells
T1 sequence (O43683 704-1085): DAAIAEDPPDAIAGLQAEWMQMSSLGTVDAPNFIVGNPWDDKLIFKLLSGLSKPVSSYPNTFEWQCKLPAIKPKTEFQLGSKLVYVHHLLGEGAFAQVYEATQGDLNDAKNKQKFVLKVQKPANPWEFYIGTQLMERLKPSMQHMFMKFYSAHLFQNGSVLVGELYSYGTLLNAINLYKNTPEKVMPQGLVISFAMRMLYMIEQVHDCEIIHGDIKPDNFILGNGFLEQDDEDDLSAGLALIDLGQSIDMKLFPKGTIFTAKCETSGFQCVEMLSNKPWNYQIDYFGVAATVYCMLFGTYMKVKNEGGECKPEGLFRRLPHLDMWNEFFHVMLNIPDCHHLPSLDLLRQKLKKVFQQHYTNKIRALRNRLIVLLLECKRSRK
As to the kind of experiment: Bub1 kinase assay (TR-FRET). The assay is classed as biochemical. Particulars: TR-FRET; ATP 10 μM, peptide substrate 1 μM; 60 min at 22° C.; average or median if tested more than once; read-out: Inhibition of Bub1 kinase IC50. Summed up: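 Human Bub1 catalytic domain (704-1085, His6-tagged, Hi5-expressed, ~200 ng/mL) preincubated with compound 15 min at 22 °C, then reacted 60 min at 22 °C with 10 μM ATP and 1 μM biotinylated peptide substrate, pH 7.5. EDTA stop; TR-FRET 665/620 ratio; IC50 from 4-parameter fit, 11 concentrations in duplicate.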
The term IC50 denotes the point on the concentration scale where inhibition reaches its midpoint. For the compound `O=C(Nc1cc(-c2[nH]c3c(c2Nc2ccccc2)C(=O)COC3)ccn1)c1ccn[nH]1` [Example 145, N-[4-(3-Anilino-4-oxo-1,4,5,7-tetrahydropyrano[3,4-b]pyrrol-2-yl)pyridin-2-yl]-1H-pyrazole-5-carboxamide], the IC50 came to 16 nM.

As for `CC(C)(C)OC(=O)N1CC(=O)c2c([nH]c(-c3ccnc(N)c3)c2Nc2ccccc2)C1` [Example 13, tert-Butyl 2-(2-aminopyridin-4-yl)-4-oxo-3-(phenylamino)-1,4,5,7-tetrahydro-6H-pyrrolo[2,3-c]pyridine-6-carboxylate], the IC50 came out at 40 nM. For the compound `CC(=O)Nc1cc(-c2[nH]c3c(c2Nc2ccc(C)cc2)C(=O)CN(C(=O)N(C)C)C3)ccn1` [Example 317, 2-[2-(Acetylamino)pyridin-4-yl]-N,N-dimethyl-3-[(4-methylphenyl)amino]-4-oxo-1,4,5,7-tetrahydro-6H-pyrrolo[2,3-c]pyridine-6-carboxamide], the IC50 is 50 nM. Regarding `CC(=O)Nc1cc(-c2[nH]c3c(c2Nc2ccccc2)C(=O)CN(S(=O)(=O)C2CC2)C3)ccn1` [Example 172], the IC50 worked out at 5 nM. With `CS(=O)(=O)N1CC(=O)c2c([nH]c(-c3ccnc(NC(=O)[C@@H]4C[C@@H]4F)c3)c2Nc2ccccc2)C1` [Example 203] the figure was 2 nM; with `COC(=O)N1CC(=O)c2c([nH]c(-c3ccncc3OC)c2Nc2ccccc2)C1` [Example 104, Methyl 2-(3-methoxypyridin-4-yl)-4-oxo-3-(phenylamino)-1,4,5,7-tetrahydro-6H-pyrrolo[2,3-c]pyridine-6-carboxylate], 9 nM. Regarding `O=C(CC(F)(F)F)Nc1cc(-c2[nH]c3c(c2Nc2ccccc2)C(=O)COC3)ccn1` [Example 36, 3,3,3-Trifluoro-N-{4-[4-oxo-3-(phenylamino)-1,4,5,7-tetrahydropyrano[3,4-b]pyrrol-2-yl]pyridin-2-yl}propanamide], the IC50 is 79 nM. The figure for `CCC(=O)N1CC(=O)c2c([nH]c(-c3ccncc3)c2Nc2ccccc2)C1` [Example 8, 3-(phenylamino)-6-propanoyl-2-(pyridin-4-yl)-1,5,6,7-tetrahydro-4H-pyrrolo[2,3-c]pyridin-4-one] is 4 nM; for `COC(=O)N1CC(=O)c2c([nH]c(-c3ccnc(NC(C)=O)c3)c2Nc2ccc(F)cc2)C1` [Example 314, Methyl 2-[2-(acetylamino)pyridin-4-yl]-3-[(4-fluorophenyl)amino]-4-oxo-1,4,5,7-tetrahydro-6H-pyrrolo[2,3-c]pyridine-6-carboxylate] it is 8 nM; for `COCCOc1cnccc1-c1[nH]c2c(c1Nc1ccccc1)C(=O)CN(C(=O)OC)C2` [Example 248, Methyl 2-[3-(2-methoxyethoxy)pyridin-4-yl]-4-oxo-3-(phenylamino)-1,4,5,7-tetrahydro-6H-pyrrolo[2,3-c]pyridine-6-carboxylate] it is 5 nM. The figure for `CN1CCN(C(=O)N2CC(=O)c3c([nH]c(-c4ccncc4OCC4CC4)c3Nc3ccccc3)C2)CC1` [Example 252, 2-[3-(Cyclopropylmethoxy)pyridin-4-yl]-6-[(4-methylpiperazin-1-yl)carbonyl]-3-(phenylamino)-1,5,6,7-tetrahydro-4H-pyrrolo[2,3-c]pyridin-4-one] is 48 nM; for `CC(C)(C)NC(=O)N1CC(=O)c2c([nH]c(-c3ccncc3)c2Nc2ccccc2)C1` [Example 85, N-tert-Butyl-4-oxo-3-(phenylamino)-2-(pyridin-4-yl)-1,4,5,7-tetrahydro-6H-pyrrolo[2,3-c]pyridine-6-carboxamide] it is 13 nM. The figure for `COCCOc1cnccc1-c1[nH]c2c(c1Nc1ccccc1)C(=O)CN(C(=O)OC(C)(C)C)C2` [Example 222, tert-Butyl 3-anilino-2-[3-(2-methoxyethoxy)pyridin-4-yl]-4-oxo-1,4,5,7-tetrahydro-6H-pyrrolo[2,3-c]pyridine-6-carboxylate] is 9 nM. In the case of `CC(=O)Nc1cc(-c2[nH]c3c(c2Nc2ccccc2)C(=O)CN(C(=O)CC(C)(C)C(F)(F)F)C3)ccn1` [Example 219, N-{4-[3-Anilino-4-oxo-6-(4,4,4-trifluoro-3,3-dimethylbutanoyl)-4,5,6,7-tetrahydro-1H-pyrrolo[2,3-c]pyridin-2-yl]pyridin-2-yl}acetamide], the IC50 worked out at 22 nM. With `CC(C)(C)OC(=O)N1CC(=O)c2c([nH]c(-c3ccnc(NC(=O)C(C)(C)F)c3)c2Nc2ccccc2)C1` [Example 119, tert-Butyl 2-{2-[(2-fluoro-2-methylpropanoyl)amino]pyridin-4-yl}-4-oxo-3-(phenylamino)-1,4,5,7-tetrahydro-6H-pyrrolo[2,3-c]pyridine-6-carboxylate] the figure was 42 nM. With `O=C(Nc1cc(-c2[nH]c3c(c2Nc2ccccc2)C(=O)COC3)ccn1)c1ccc(F)c(F)c1` [Example 154, N-[4-(3-Anilino-4-oxo-1,4,5,7-tetrahydropyrano[3,4-b]pyrrol-2-yl)pyridin-2-yl]-3,4-difluorobenzamide] the figure was 19 nM; with `Nc1cc(-c2[nH]c3c(c2Nc2ccccc2)C(=O)COC3)ccn1` [Example 22, 2-(2-Aminopyridin-4-yl)-3-(phenylamino)-1,7-dihydropyrano[3,4-b]pyrrol-4(5H)-one], 503 nM; with `Cc1nccc(-c2[nH]c3c(c2Nc2ccccc2)C(=O)CN(C(=O)OC(C)(C)C)C3)n1` [Example 12, tert-Butyl 2-(2-methylpyrimidin-4-yl)-4-oxo-3-(phenylamino)-1,4,5,7-tetrahydro-6H-pyrrolo[2,3-c]pyridine-6-carboxylate], 102 nM. The figure for `CC(C)(C)OC(=O)N1CC(=O)c2c([nH]c(-c3ccnc(NC(=O)[C@@H]4C[C@H]4F)c3)c2Nc2ccccc2)C1` (relative stereo) [Example 129, tert-Butyl 3-anilino-2-[2-({[(rel-1S,2R)-2-fluorocyclopropyl]carbonyl}amino)pyridin-4-yl]-4-oxo-1,4,5,7-tetrahydro-6H-pyrrolo[2,3-c]pyridine-6-carboxylate] is 7 nM. As to `O=C1CN(S(=O)(=O)CCC(F)(F)F)Cc2[nH]c(-c3ccncc3)c(Nc3ccccc3)c21` [Example 69, 3-(phenylamino)-2-(pyridin-4-yl)-6-[(3,3,3-trifluoropropyl)sulfonyl]-1,5,6,7-tetrahydro-4H-pyrrolo[2,3-c]pyridin-4-one], the IC50 was found to be 4 nM. The figure for `CN(C)C(=O)N1CC(=O)c2c([nH]c(-c3ccnc(NC(=O)[C@@H]4C[C@@H]4F)c3)c2Nc2ccccc2)C1` [Example 207, 2-[2-([(1S,2S)-2-Fluorocyclopropyl]carbonylamino)pyridin-4-yl]-N,N-dimethyl-4-oxo-3-(phenylamino)-1,4,5,7-tetrahydro-6H-pyrrolo[2,3-c]pyridine-6-carboxamide] is 3 nM; for `CNS(=O)(=O)N1CC(=O)c2c([nH]c(-c3ccnc(NC(C)=O)c3)c2Nc2ccc(C)cc2)C1` [Example 322] it is 41 nM; for `N#CCN1CC(=O)c2c([nH]c(-c3ccncc3)c2Nc2ccccc2)C1` [Example 98, [4-Oxo-3-(phenylamino)-2-(pyridin-4-yl)-1,4,5,7-tetrahydro-6H-pyrolo[2,3-c]pyridin-6-yl]acetonitrile] it is 16 nM. With `O=C1CNCc2[nH]c(-c3ccnc(NC(=O)C4(F)CC4)c3)c(Nc3ccccc3)c21` [Example 132, N-[4-(3-anilino-4-oxo-4,5,6,7-tetrahydro-1H-pyrrolo[2,3-c]pyridin-2-yl)pyridin-2-yl]-1-fluorocyclopropanecarboxamide] the figure was 299 nM; with `CS(=O)(=O)N1CC(=O)c2c([nH]c(-c3ccncc3OCC(F)(F)F)c2Nc2ccccc2)C1` [Example 233, 6-(Methylsulfonyl)-3-(phenylamino)-2-[3-(2,2,2-trifluoroethoxy)pyridin-4-yl]-1,5,6,7-tetrahydro-4H-pyrrolo[2,3-c]pyridin-4-one], 36 nM. The figure for `CC(C)OC(=O)N1CC(=O)c2c([nH]c(-c3ccnc(NC(=O)[C@@H]4C[C@@H]4F)c3)c2Nc2ccccc2)C1` [Example 216, Propan-2-yl 2-[2-([(1S,2S)-2-fluorocyclopropyl]carbonylamino)pyridin-4-yl]-4-oxo-3-(phenylamino)-1,4,5,7-tetrahydro-6H-pyrrolo[2,3-c]pyridine-6-carboxylate] is 6 nM.

`COCCNC(=O)N1CC(=O)c2c([nH]c(-c3ccncc3)c2Nc2ccccc2)C1` [Example 86, N-(2-Methoxyethyl)-4-oxo-3-(phenylamino)-2-(pyridin-4-yl)-1,4,5,7-tetrahydro-6H-pyrrolo[2,3-c]pyridine-6-carboxamide]: the 50% inhibitory concentration (IC50) is 11 nM. The figure for `CC(=O)Nc1cc(-c2[nH]c3c(c2Nc2ccccc2)C(=O)CN(C(=O)N(C)C)C3)ccn1` [Example 124, 2-(2-Acetamidopyridin-4-yl)-3-anilino-N,N-dimethyl-4-oxo-1,4,5,7-tetrahydro-6H-pyrrolo[2,3-c]pyridine-6-carboxamide] is 4 nM; for `CC(=O)Nc1cc(-c2[nH]c3c(c2Nc2ccccc2)C(=O)CN(C(=O)c2cnc[nH]2)C3)ccn1` [Example 113, N-{4-[6-(1H-Imidazol-5-ylcarbonyl)-4-oxo-3-(phenylamino)-4,5,6,7-tetrahydro-1H-pyrrolo[2,3-c]pyridin-2-yl]pyridin-2-yl}acetamide] it is 34 nM; for `COc1ccc(C(=O)Nc2cc(-c3c(Nc4ccccc4)c4c(n3C)CN(C(=O)OC(C)(C)C)CC4=O)ccn2)cc1F` [Example 286, tert-Butyl 2-2-[(3-fluoro-4-methoxybenzoyl)amino]pyridin-4-yl-1-methyl-4-oxo-3-(phenylamino)-1,4,5,7-tetrahydro-6H-pyrrolo[2,3-c]pyridine-6-carboxylate] it is 1050 nM.
